Here are results for three compounds from patent US11701409B2, “Dosing and use of long-acting CLR/ramp agonists” (Adepthera LLC, priority 2016, dated 2023).

Like-named read-outs stand apart in the source and are kept apart here. No end group written: not given here. A value given as a limit tells only on which side of the number the result lay.

Series [1] deals with C57/B6 mice. Format: in vivo. On the procedure: (§1) To evaluate the effects of the long-acting stable analog on heart failure, we treated 8-week-old C57/B6 mice with doxorubicin (10 mg/kg body weight) to induce cardiomyopathy. After the injection of doxorubicin, the animals were injected with wild-type ADM or the long-acting stable analog twice daily. After five days of treatment, the animals were sacrificed, and hearts were collected for weight determination individually. In addition, we collected blood samples for the determination of aspartate aminotransferase activity. Sham adult mice at the same ages were used as normal controls.
In a separate series of study, we evaluated the effects of stable analog on blood aspartate aminotransferase levels (FIG. 4b).

The subject of the next series is RUPP pregnant rats. Kind of series: Reduced uterine perfusion pressure (RUPP) preeclampsia rat model, osmotic mini-pump infusion for 4 days. The series is classed as in vivo. The procedure:
To evaluate the effects of the long-acting stable analog for the treatment of preeclampsia, resistant hypertension, hypertensive crisis, vascular ischemic injury, and pregnancy hypertension, we tested the analog in a reduced uterine perfusion pressure (RUPP) preeclampsia rat model. The model was first described by Dr. Joey P. Granger et al. (2000, Hypertension 37:1191-1195). Briefly, pregnant rats weighing 200-250 g at 14 days of gestation were anesthetized with pentobarbital (40 mg/kg, i.p.). The lower abdomen area was shaved and the skin was swabbed with surgical scrub (iodine and alcohol). A 3-cm skin incision was made at the midline. After a midline incision, the lower abdominal aorta was isolated and a silver clip (0.203 mm) was placed around the aorta above the iliac bifurcation. Because compensatory blood flow to the placenta occurs via an adaptive increase in […] blood flow during pregnancy, both right and left […] arcades were clipped (silver clip, 0.100 mm). RUPP rats were divided into two groups, and an osmotic mini-pump (ALZET) loaded with saline or the long-acting analog was implanted in the upper abdomen. The mini-pumps delivered the solution at a rate of 1 ul/hr. Sham pregnant rats were used as normal controls.
The incision was closed with absorbable braided surgical suture. After awake, animals were given buprenorphine 0.1 mg/kg s.c. once a day for three days. These procedures reduced uterine blood flow in the gravid rat by >40%, and cause hypertension and intrauterine growth restriction in the fetus.
After 4 days of the treatments, all rats were anesthetized and catheterized for measurement of blood pressure and heart rate. Animals were anesthetized with pentobarbital, and a Mikro-tip catheter (1.0 F pressure catheter, Miller, Tex.) was placed into the right carotid artery. After insertion, the catheter was advanced into the aorta, and stopped at the appearance of arterial pressure curve. The Mikro-tip catheter was connected to a Powerlab system, and blood pressure and heart rate was recorded and saved in a computer. In addition, the blood flow velocity above and below the artery constriction site was determined by a Doppler method.
After the hemodynamic measurement was completed (taking about 0.5-1 hr), rats were euthanized. The fetuses, placenta tissues, and hearts were harvested and weighed individually.

Series [2] relates to C57/B6 mice. Kind of series: Doxorubicin-induced cardiomyopathy in adult mice, heart weight. The series is classed as in vivo. Particulars: for average heart weight: sixth day. The procedure:
as §1

A further series deals with pregnant SHR rats. The experiment in a line: Blood pressure after injection in pregnant spontaneous hypertensive rats (SHR). The series is classed as in vivo, rat. Particulars: low dose 30 nmoles/kg. An excerpt:
(§2) Bolus IP injection of the long-acting stable analog (100 nmoles/kg) led to a sustained reduction of blood pressure for 4 hr in normal pregnant Sprague Dawley rats, whereas the hypotensive effects of wild-type ADM disappeared within 2 hr (FIG. 1a). In addition, we compared the blood pressure-lowering effect of the long-acting stable analog in pregnant Sprague Dawley rats and pregnant spontaneous hypertensive rats (SHR). […] This characteristic not only allows less frequent dosing in clinical condition but also increases the therapeutic index of long-acting CLR/RAMP receptor agonists.

Series [3] relates to normal pregnant Sprague Dawley rats. The experiment in a line: Blood pressure after bolus IP injection in instrumented normal pregnant Sprague Dawley rats. Format: in vivo, rat. Particulars: for duration of sustained reduction of blood pressure (hypotensive effect): bolus IP injection, 100 nmoles/kg, normal pregnant Sprague Dawley rats.
Description: as §2

[4] abbreviates: high dosage 10 μg/kg/hr for four days.
Where [5] appears, read: low dose 3.3 μg/kg/hr for four days.

As to “Ace-K(Pal)GCRFGTCTVQKLAHQIYQFTDKDKDNVAPRSKISPQGY-NH2 (KGCRFGTCTVQKLAHQIYQFTDKDKDNVAPRSKISPQGY; N-acetyl, palmitoyl-Lys, C-terminal amide; MOD_RES (1)..(1) …ON; LIPID (1)..(1) …; MOD_RES (39)..(39) AMIDATION) [long-acting stable analog]”, the “blood aspartate aminotransferase level” value in the series on C57/B6 mice [1] (Dox + stable analog, high dose 50 nM/Kg body weight) is given as 200.1±10.0 U/liter. In addition, in the series on C57/B6 mice [1] (Dox + stable analog, low dose 25 nM/Kg BW), the “effect on doxorubicin-elevated aspartate aminotransferase level” value is given as “no statistically significant effect”. Moreover, in the series on RUPP pregnant rats (setting [4]), the average fetus weight came to 483 ± 92 mg, the average heart weight stood at 3.16±0.06 mg per gram body weight, the average placenta weight was 253 ± 36 mg and the “body weight lost during the four-day experimental period” value is 3±3 grams. In the series with RUPP pregnant rats (setting [4]), the heart rate is reported as 379±8 beats/min and the mean arterial pressure is 93±5 mmHg. In the series on RUPP pregnant rats (setting [5]), this compound gave an average fetus weight of 577 ± 166 mg, an average placenta weight of 301 ± 46 mg and a mean arterial pressure of 107±4 mmHg. Besides, the average heart weight with C57/B6 mice [2] (co-treatment with doxorubicin 10 mg/kg, peptide injected twice daily, five days) came out at 11.0 ± 0.6 mg. Besides, the “duration of hypotensive effects” value with pregnant SHR rats is “over 8 hr”. Moreover, the “duration of sustained reduction of blood pressure (hypotensive effect)” value in series [3] stood at 4 h. Moreover, in series [3] (low dose 30 nmoles/kg, pregnant Sprague Dawley rats), the “duration of blood pressure reduction” value stood at 2 h.

Consider `COc1cccc2c1C(=O)c1c(O)c3c(c(O)c1C2=O)C[C@@](O)(C(=O)CO)C[C@@H]3O[C@H]1C[C@H](N)[C@H](O)[C@H](C)O1` [doxorubicin, reference compound], for which the “blood aspartate aminotransferase level” value in the series on C57/B6 mice [1] (mouse, in vivo) was 300.7±33.6 U/liter. The compound also had an average heart weight in the series with C57/B6 mice [2] (doxorubicin 10 mg/kg body weight alone (Dox group)) of 9.3 ± 0.4 mg.

For the compound “adrenomedullin (YRQSMNNFQGLRSFGCRFGTCTVQKLAHQIYQFTDKDKDNVAPRSKISPQGY; ends and bridges not checked; cysteine pairing not given here; UniProt P35318 95-146, looked up) [wild-type ADM, wild-type adrenomedullin, 52 amino acids, 1 intramolecular disulfide bond, ligand of CLR/RAMP receptors, reference compound]”, the “reduction of doxorubicin-induced loss of heart weight” value in the series with C57/B6 mice [2] (co-treatment with doxorubicin 10 mg/kg, peptide injected twice daily, five days, Dox group vs. Dox+ADM group) is recorded as “not statistically significant”. In addition, the “duration of sustained reduction of blood pressure (hypotensive effect)” value in series [3] was no more than 2 h.
